Results reported in patent US20250235450A1, “COMBINATION THERAPIES COMPRISING APREMILAST AND TYK2 INHIBITORS” (Celgene Corporation, priority 2019, published 2025).
Like-named read-outs stand apart in the source and are kept apart here.

System: anti-CD3/anti-CD28 (Th0) or anti-CD3/anti-CD28, IL-1β, IL-6 and IL-23 (Th17) stimulated whole blood
Experiment: Ex-vivo TruCulture tube assay: cytokine production in stimulated whole blood
Format: cell-based, human
Procedure: Whole blood was received through the Celgene Donor program after informed consent and donor deidentification. All volunteers were healthy and were not on any medications for at least 72 hours prior to the blood draw. Blood was collected in sodium heparin tubes. The assay was started within 2 hours of the blood draw.
An ex-vivo stimulation of healthy donor human whole blood was performed under two different stimulation conditions. Condition Th0 was a stimulation with TruCulture® tubes containing anti-CD3/anti-CD28. Condition Th17 was a stimulation with TruCulture® tubes containing anti-CD3/anti-CD28 plus IL-1β, IL-6 and IL-23. Whole blood was separated into 15 milliliter conical tubes and pre-treated with DMSO, apremilast alone, BMS-986165 alone or BMS-986165 combined with apremilast. Final concentrations were 0.2% DMSO, 1 μM for apremilast alone, 1 μM, 0.1 μM, 0.01 μM and 0.001 μM BMS-986165 alone and in combination with 1 μM apremilast. Blood was mixed well and then incubated in a 37° C./5% CO2 incubator for 1 hour.
The anti-CD3/anti-CD28 (200 ng/ml and 330 ng/ml final concentrations respectively) TruCulture® tubes were thawed on the bench top for 30 minutes and then labeled. Plungers were pressed and then broken off. TruCulture® tubes were placed in a rack standing upright such that the plunger side is pointing down in the rack and the tube-cap is pointing up. While blood was incubating with compound Human recombinant IL-6, IL-1β and IL-23 were added to all Th17 tubes in the following concentrations: 120 ng IL-6, 120 ng IL-1b and 150 ng IL-23. One ml of the pre-treated whole blood was placed in each tube, using sterile pyrogen-free pipette tips. The cap was replaced and the contents of the tube were mixed by inverting 3 times. The tubes were immediately placed in a 37° C. heat block and incubated for 42 hours (tube-cap end). After the 42 hours the tubes were removed from the heat block, tops were unscrewed and 250 μl of the supernatant was removed and transferred into three 96-well polypropylene plates. Samples were immediately frozen at −80° C. The supernatants were then thawed at room temperature and tested neat for cytokine production by Luminex Multi-Plex MagPix technology (Millipore) or IL-22 by ELISA (Abcam). The manufacturer's procedures were followed accordingly.
Data processing for the cytokine analysis was done using Milliplex Analyst (Millipore), and raw data was exported to Excel template for the cytokine analysis. Data from the template was plotted using GraphPad Prism 7.0 (GraphPad Software, Inc., La Jolla, CA) and expressed as pg/ml or % of control. Statistical analysis was also performed using One Way Anova and Dunnett's Post Test.
To evaluate the combinatory effect of apremilast and BMS-986165, data from the two independent treatments were analyzed by comparing the combinatory response against the theoretical additive response of the two agents. The expected additive effect of two agents (A and B) was calculated using the fractional product method: (fu)A,B=(fu)A×(fu)B; where fu=fraction unaffected by treatment.

[1] = Th0, 0.01 μM BMS-986165 (combination: + 1 μM apremilast)
[2] = Th0, 0.1 μM BMS-986165 (combination: + 1 μM apremilast)
[3] = Th17, 0.01 μM BMS-986165 (combination: + 1 μM apremilast)
[4] = Th17, 0.1 μM BMS-986165 (combination: + 1 μM apremilast)

[2H]C([2H])([2H])NC(=O)c1nnc(NC(=O)C2CC2)cc1Nc1cccc(-c2ncn(C)n2)c1OC [BMS-986165, 6-(cyclopropanecarboxamido)-4-((2-methoxy-3-(1-methyl-1H-1,2,4-triazol-3-yl)phenyl)amino)-N-(methyl-d3)pyridazine-3-carboxamide]
increase of GM-CSF, statistical significance (0.1 μM BMS-986165 (Th0 and Th17) and 1 μM (Th17)): significant
inhibition at 0.01 µM (Homo sapiens, Th0, 0.01 μM BMS-986165, read-out: inhibition of IL-22): 16%
inhibition at 0.1 µM (Homo sapiens, Th0, 0.1 μM BMS-986165, read-out: inhibition of IL-22): 86%
inhibition at 1 µM (Homo sapiens, Th0, 1 μM BMS-986165, read-out: inhibition of IL-22): 91%
inhibition at 0.001 µM (Homo sapiens, Th17, 0.001 μM BMS-986165 (combination: + 1 μM apremilast), read-out: inhibition of IL-17F): 31%
inhibition at 0.01 µM (Homo sapiens, Th17, 0.01 μM BMS-986165 (combination: + 1 μM apremilast), read-out: inhibition of IL-17F): 34%
inhibition at 0.1 µM (Homo sapiens, Th17, 0.1 μM BMS-986165 (combination: + 1 μM apremilast), read-out: inhibition of IL-17F): 70%
inhibition at 1 µM (Homo sapiens, Th17, 1 μM BMS-986165 (combination: + 1 μM apremilast), read-out: inhibition of IL-17F): 95%
inhibition at 1 µM (Homo sapiens, Th17, 1 μM BMS-986165, read-out: inhibition of TNF-α): 68%
increase in TNF-α expression (Th0, 0.001 μM BMS-986165): 21%
increase of GM-CSF (Th0, 0.001 μM BMS-986165): 19%
increase in TNF-α expression (Th0, 0.01 μM BMS-986165): 43%
increase of GM-CSF (Th0, 0.01 μM BMS-986165): 36%
CCL20 % of Control [1]: 82.7 % of Control
GM-CSF % of Control [1]: 136.3 % of Control
IFN-γ % of Control [1]: 100.2 % of Control
IL-1β % of Control [1]: 113.5 % of Control
IL-2 % of Control [1]: 120.1 % of Control
IL-4 % of Control [1]: 122.8 % of Control
IL-5 % of Control [1]: 153.1 % of Control
IL-6 % of Control [1]: 149.3 % of Control
IL-10 % of Control [1]: 101.5 % of Control
IL-13 % of Control [1]: 146.9 % of Control
IL-17A % of Control [1]: 83.5 % of Control
IL-17F % of Control [1]: 68.5 % of Control
IL-21 % of Control [1]: 107.6 % of Control
IL-22 % of Control [1]: 84.1 % of Control
IL-23 % of Control [1]: 101.8 % of Control
TNF-α % of Control [1]: 143.1 % of Control
increase in TNF-α expression (Th0, 0.1 μM BMS-986165): 61%
increase of GM-CSF (Th0, 0.1 μM BMS-986165): 110%
CCL20 % of Control [2]: 106.4 % of Control
GM-CSF % of Control [2]: 210.5 % of Control
IFN-γ % of Control [2]: 80.9 % of Control
IL-1β % of Control [2]: 113.2 % of Control
IL-2 % of Control [2]: 187.4 % of Control
IL-4 % of Control [2]: 114.7 % of Control
IL-5 % of Control [2]: 178.6 % of Control
IL-6 % of Control [2]: 124.0 % of Control
IL-10 % of Control [2]: 33.8 % of Control
IL-13 % of Control [2]: 205.9 % of Control
IL-17A % of Control [2]: 73.0 % of Control
IL-17F % of Control [2]: 28.3 % of Control
IL-21 % of Control [2]: 94.5 % of Control
IL-22 % of Control [2]: 13.4 % of Control
IL-23 % of Control [2]: 89.9 % of Control
TNF-α % of Control [2]: 160.7 % of Control
increase of GM-CSF (Th0, 1 μM BMS-986165): 31%
inhibition of TNF-α cytokine expression (Th0, 1 μM BMS-986165): 66%
IL-17A levels (Th0, 1 μM BMS-986165 (combination: + 1 μM apremilast), control 138 pg/mL): 97 pg/mL
effect on IL-17A cytokine expression (Th0 and Th17): inhibited
effect on IL-17F cytokine expression (Th0 and Th17): inhibited
effect on IL-22 cytokine expression (Th0 and Th17): inhibited
effect on IL-22 cytokine expression, statistical significance (Th0 and Th17, 0.1 μM and 1 μM BMS-986165): significantly lowered
inhibition of TNF-α levels, statistical significance (Th0 and Th17, 1 μM BMS-986165): significant
effect on IL-17F, statistical significance (Th0 and Th17, 0.1 and 1 μM BMS-986165): significantly reduced
effect on IL-22 cytokine expression (Th17, 0.001 μM BMS-986165): no effect
increase in TNF-α production (Th17, 0.01 μM BMS-986165): 19%
increase of GM-CSF (Th17, 0.01 μM BMS-986165): 41%
CCL20 % of Control [3]: 121.7 % of Control
GM-CSF % of Control [3]: 141.1 % of Control
IFN-γ % of Control [3]: 114.2 % of Control
IL-1β % of Control [3]: 94.2 % of Control
IL-2 % of Control [3]: 128.5 % of Control
IL-4 % of Control [3]: 126.5 % of Control
IL-5 % of Control [3]: 144.3 % of Control
IL-6 % of Control [3]: 96.8 % of Control
IL-10 % of Control [3]: 78.4 % of Control
IL-13 % of Control [3]: 158.1 % of Control
IL-17A % of Control [3]: 97.7 % of Control
IL-17F % of Control [3]: 73.6 % of Control
IL-21 % of Control [3]: 91.5 % of Control
IL-22 % of Control [3]: 83.3 % of Control
IL-23 % of Control [3]: 93.8 % of Control
TNF-α % of Control [3]: 118.5 % of Control
inhibition of IL-22 cytokine expression [3]: 17%
IL-17A levels (Th17, 0.01 μM BMS-986165 (combination: + 1 μM apremilast), control 532 pg/mL): 519 pg/mL
increase in TNF-α levels, statistical significance (Th17, 0.1 μM BMS-986165): significant
increase in TNF-α production (Th17, 0.1 μM BMS-986165): 77%
increase of GM-CSF (Th17, 0.1 μM BMS-986165): 139%
CCL20 % of Control [4]: 157.8 % of Control
GM-CSF % of Control [4]: 239.3 % of Control
IFN-γ % of Control [4]: 74.7 % of Control
IL-1β % of Control [4]: 89.0 % of Control
IL-2 % of Control [4]: 250.3 % of Control
IL-4 % of Control [4]: 161.9 % of Control
IL-5 % of Control [4]: 249.9 % of Control
IL-6 % of Control [4]: 112.7 % of Control
IL-10 % of Control [4]: 46.6 % of Control
IL-13 % of Control [4]: 287.5 % of Control
IL-17A % of Control [4]: 79.2 % of Control
IL-17F % of Control [4]: 30.0 % of Control
IL-21 % of Control [4]: 86.3 % of Control
IL-22 % of Control [4]: 39.8 % of Control
IL-23 % of Control [4]: 96.3 % of Control
TNF-α % of Control [4]: 177.4 % of Control
inhibition of IL-22 cytokine expression [4]: 60%
IL-17A levels (Th17, 0.1 μM BMS-986165 (combination: + 1 μM apremilast), control 532 pg/mL): 428 pg/mL
increase of GM-CSF (Th17, 1 μM BMS-986165): 104%
inhibition of IL-22 cytokine expression (Th17, 1 μM BMS-986165): 70%
IL-17A levels (Th17, 1 μM BMS-986165 (combination: + 1 μM apremilast), control 532 pg/mL): 383 pg/mL
inhibition of IL-17A expression (similar under Th0 and Th17, 0.001-1 μM BMS-986165): 10-25%
effect on GM-CSF production (whole blood, Th0 and Th17): increased
effect on TNF-α production (whole blood, Th0 and Th17): increased
